# Test results taken from patent US10653637B2, “Preventives or remedies for hepatopathy” (priority 2003, dated 2020).
# Legend:
# [1] = tested on: DMN-induced hepatic fibrosis/liver cirrhosis model; test: Ghrelin administration in DMN-induced hepatic fibrosis/liver cirrhosis model (survival rate); assay type: in vivo, rat; settings: DMN-treated rats
# Protocol: Ghrelin administration experiment using dimethylnitrosoamine (DMN)-induced hepatic fibrosis/liver cirrhosis model (Estimation of survival rate).
# A hepatic fibrosis/liver cirrhosis rat model to be induced by DMN was prepared, rat ghrelin was subcutaneously injected, and the effect on hepatopathy was investigated.
# Upon use, a dilution in which DMN (manufactured by Wako Pure Chemical Industries, Ltd.) was diluted with a physiological saline solution (manufactured by Otsuka Pharmaceutical Co., Ltd., physiological saline solution described in the Japanese Pharmacopoeia) to 1% concentration (v/v) was prepared, and this was intraperitoneafly administered to male rats (4 weeks old) so that DMN became 1 mL/kg. Administration was performed once a day, for consecutive three days in one week, and administration was repeated for 6 weeks, and the first time administration date was regarded as day 1.
# Rat ghrelin (purchased from Peptide Institute Inc., Japan) was added to 5 weight % mannitol as a solvent to a concentration of 1 mg/mL, this was dispensed every necessary amount per one time, and freezing-stored at about −80° C. until its use. Upon use, this was thawed, and diluted with a physiological saline solution to a concentration of 30 μg/mL and 3 μg/mL to obtain a dosing solution. […]
# [2] = tested on: DMN-induced hepatic fibrosis rat; test: Ghrelin administration in DMN-induced hepatic fibrosis/liver cirrhosis model (organ weight, hematology, serum biochemistry); assay type: in vivo; settings: 35 days, DMN treatment
# Protocol: Ghrelin administration experiment using DMN-induced hepatic fibrosis/liver cirrhosis model (Estimation of various parameters)
# According to the same manner as that of Example 1 except that administration days were changed from 8 weeks to 35 days, an experiment was performed, and the effect of rat ghrelin on hepatopathy was estimated from a viewpoint of organ weight, hematology and serum biochemistry. A DMN-untreated group (normal rat) was used as a control group.
# rat hepatocytes = test: Rat hepatocyte proliferation promoting activity (ki-67 immunostaining) after one week of repeated administration; assay type: in vivo; settings: ghrelin 10 μg/kg i.v. two times a day for 7 days; for Positive ratio (ki-67): % printed in b244 only; for Number of ki-67 positive cells: among 231±27 hepatocytes, eight places of liver section
# Protocol: Rat hepatocyte proliferation promoting activity by repeated administration of ghrelin for one week
# 10 μg/kg of ghrelin was repeatedly administered intravenously to Wistar male rats two times a day for 7 days and, on the next day from administration completion, liver was isolated and fixed. Then, ki-67 protein as a peptide which is expressed at cell growth phase was immunostained.
# For quantatively assessing hepatocyte proliferation activity by ghrelin, eight places of the liver section of one case of the physiological saline-administered group and one case of the ghrelin-administered group were arbitrarily selected, and among about 200 hepatocytes in a visual field, the number of ki-67 positive cells was counted under a microscope.
# [3] = tested on: Wistar male rats after 70% hepatectomy; test: Liver weight after hepatectomy under 40% restricted diet; assay type: in vivo, rat; settings: ghrelin 30 μg/kg s.c. two times a day for 3 days after 70% hepatectomy, four days after
# Protocol: Liver Weight after Hepatectomy
# Seventy % of liver was excised under anesthesia in Wistar male rats, and 30 μg/kg of ghrelin or a physiological saline was subcutaneously injected two times a day for 3 days under 40% restricted diet. Four days after, rat liver was isolated, and the liver weight was measured.
# Wistar male rats = test: Organ blood flow (microspheres); assay type: in vivo, rat; settings: ghrelin 30 μg/kg s.c., under anesthesia; for Hepatic blood flow / Spleen blood flow / Stomach blood flow: mean ± standard deviation, 6 rats per group
# PCNA mRNA = test: Expression of hepatocyte proliferation marker PCNA mRNA in liver (real time RT-PCR); assay type: in vivo, rat; settings: ghrelin 30 μg/kg s.c., DMN-induced hepatic fibrosis rats
# Protocol: (§1) Amount of expression of hepatocyte proliferation marker (PCNA) and HGF
# (§2) Amounts of expression of a PCNA mRNA and a HGF mRNA in the liver after subcutaneous injection of a physiological saline and ghrelin to DMN-induced hepatic fibrosis rats were measured by the real time RT-PCR method.
# HGF mRNA = test: Expression of HGF mRNA in liver (real time RT-PCR); assay type: in vivo, rat; settings: ghrelin 30 μg/kg s.c., DMN-induced hepatic fibrosis rats
# Protocol: as §1, §2
# [4] = ghrelin 3 μg/kg s.c. once a day
# [5] = ghrelin 3 μg/kg s.c. once a day, mean±S.E.
# [6] = ghrelin 30 μg/kg s.c. once a day
# [7] = ghrelin 30 μg/kg s.c. once a day, listed as ghrelin
# [8] = ghrelin 30 μg/kg s.c. once a day, mean±S.E.
# [9] = ghrelin 30 μg/kg s.c. once a day, mean±S.E., listed as ghrelin
# [10] = ghrelin administration, dose not given
substance,measurement,setting,value
Ghrelin,survived at 56 days,[1]; ghrelin 3 μg/kg s.c. once a day from day 1 over 8 weeks,75%
same,survival at 56 days,[1]; ghrelin 30 μg/kg s.c. once a day from day 1 over 8 weeks,all cases survived
same,Ascites (appearance frequency),[2]; [4],2/7
same,Erythrocyte,[2]; [4],6.4 ± 0.2 ×10^6/μL
same,Fibrinogen,[2]; [4],166 ± 9.5 mg/dL
same,Hepaplastin time,[2]; [4],86.2 ± 11.8 s
same,Leukocyte,[2]; [4],7.3 ± 0.6 ×10^3/μL
same,Platelet,[2]; [4],52.3 ± 6.2 ×10^4/μL
same,Spleen weight increase as compared with normal rats,[2]; [4],more than 2 fold
same,Δ liver weight,[2]; [5],13.6 ± 0.7 g
same,Δ spleen weight,[2]; [5],2.20 ± 0.08 g
same,Δ liver weight (g),"[2]; ghrelin 3 μg/kg s.c. once a day, mean±S.E., listed as ghrelin",reduced as compared with a normal rat
same,Ascites (appearance frequency),[2]; [6],0/7
same,Erythrocyte,[2]; [6],6.8 ± 0.3 ×10^6/μL
same,Fibrinogen,[2]; [6],207 ± 16.3 mg/dL
same,Hepaplastin time,[2]; [6],77.8 ± 3.2 s
same,Leukocyte,[2]; [6],6.6 ± 1.2 ×10^3/μL
same,Platelet,[2]; [6],89.6 ± 5.5 ×10^4/μL
same,Ascites (appearance frequency),[2]; [7],ascites did not appear
same,Erythrocyte,[2]; [7],returned to a normal level
same,Leukocyte,[2]; [7],returned to a normal level
same,Platelet,[2]; [7],the number of platelets was recovered
same,Δ liver weight,[2]; [8],14.3 ± 0.6 g
same,Δ spleen weight,[2]; [8],1.83 ± 0.12 g
same,Δ liver weight (g),[2]; [9],reduction in the liver weight was suppressed
same,Δ spleen weight (g),[2]; [9],increase was slightly suppressed
same,hepaplastin time (in words),[2]; [10],tended to be normalized
same,serum fibrinogen (in words),[2]; [10],a tendency that fibrinogen was recovered to normalization
same,Positive ratio (ki-67),rat hepatocytes,9.28 ± 3.26%
same,Positive ratio (ki-67),rat hepatocytes; listed as ghrelin,9.28±3.26%
same,Number of ki-67 positive cells,rat hepatocytes,20.9 ± 6.1
same,Number of ki-67 positive cells,rat hepatocytes; listed as ghrelin,20.9±6.1
same,Liver weight,[3],2.464 ± 0.133
same,Liver weight,[3]; listed as ghrelin,the liver weight was increased
same,Hepatic blood flow,Wistar male rats,1.049 ± 0.414 mL/min/kg
same,Spleen blood flow,Wistar male rats,1.099 ± 0.264 mL/min/kg
same,Stomach blood flow,Wistar male rats,1.064 ± 0.486 mL/min/kg
same,Hepatic blood flow,Wistar male rats; listed as ghrelin,increased
same,Spleen blood flow,Wistar male rats; listed as ghrelin,increased
same,Stomach blood flow,Wistar male rats; listed as ghrelin,increased
same,blood flow in jejunum,Wistar male rats; versus physiological saline,a tendency of blood flow increase
same,PCNA mRNA (amount of expression in the liver),PCNA mRNA,2.083 ± 0.533
same,PCNA mRNA (amount of expression in the liver),PCNA mRNA; listed as ghrelin,tended to be increased
same,HGF mRNA (amount of expression in the liver),HGF mRNA,2.025 ± 0.595
same,HGF mRNA (amount of expression in the liver),HGF mRNA; listed as ghrelin,increased
